This assay has as its system human sebocytes. The experiment in a line: Inhibition of sebocyte lipogenesis (14C-acetate label remaining in sebocytes). The format is cell-based. The settings on record: for radioactive label remaining in the sebocytes, % of Control / IC50: 20 hour incubation, 96 well plate; for radioactive label remaining in the sebocytes, % of Control: lower = greater inhibition of lipogenesis; for IC50: read-out: IC 50 (concentration which provides a 50% sebum suppression relative to the control); for inhibition of lipogenesis, in words: all tested concentrations (1, 10, 100 μM). The method, then:
Secondary cultures of human sebocytes obtained from an adult […] were grown in 96-well tissue culture plates (Packard Co.; Meriden, Conn.) until confluent. Sebocyte growth medium consisted of Clonetics Keratinocyte Basal Medium (KBM) supplemented with 14 μg/ml bovine pituitary extract, 0.4 μg/ml hydrocortisone, 5 μg/ml insulin, 10 ng/ml epidermal growth factor, 1.2×10^−10 M cholera toxin, 100 units/ml penicillin, and 100 μg/ml streptomycin. All cultures were incubated at 37° C. in the presence of 7.5% CO2. Medium was changed three times per week.
On the day of experimentation, the growth medium was removed and the sebocytes washed three times with sterile Dulbecco's Modified Eagle Medium (DMEM; phenol red free). Fresh DMEM was added to each sample (duplicates, triplicates, or quadruplicates depending on the experiment) with 5 μL of test agent solubilized in ethanol or sterile, distilled water. Controls consisted of addition of ethanol alone or phenol red. Phenol Red, a known sebum suppressive agent, was employed as a positive control.
Each plate was returned to the incubator for 20 hours followed by the addition of ^14C-acetate buffer (5 mM final concentration, 56 mCi/mmol specific activity). Sebocytes were returned to the incubator for four hours after which each culture was rinsed three times with phosphate buffered saline to remove unbound label. Radioactive label remaining in the sebocytes was harvested and counted using a TopCount-NXT brand scintillation counter (Packard Co., Meriden, Conn.).
The results that were obtained, expressed in terms of amount of radioactive label remaining in the sebocytes as a percent of control, are summarized in Table 2. A lower radioactive label, i.e. a lower % of control, indicates a greater inhibition of sebocyte lipogenesis.
The experiments were conducted using the procedure set forth in the Example 3 above, with the concentrations of the compounds varied, in order to determine the concentration for each compound tested which provide a 50% sebum suppression.

Marks after values point to notes of the source that are not given here.

`O=S1(=O)OC(c2ccc(O)cc2)(c2ccc(O)cc2)c2ccccc21` [Phenol Red]: the “radioactive label remaining in the sebocytes, % of Control” value (100 μM) was 46.3* % of Control.
With C13 isoalcohol [Compound 4], the IC50 stood at 100 µM.
Same read-out and setting: the value for C13 isoalcohol glycerol [Compound 5] was over 100 µM.
On the same count and under the same terms, the value for “C13 isoalcohol oxypropyl amine [Compound 3]” was about 100 µM; that for “C13 isoalcohol propionitrile [Compound 2]” was over 100 µM.
In the case of “iso-tridecyloxy propionic acid [Compound 1]”, the “inhibition of lipogenesis, in words” value was “enhanced inhibition of lipogenesis at all tested concentrations” and the IC50 is 5 µM. The “radioactive label remaining in the sebocytes, % of Control” value (1 μM) is on record as 48.7* % of Control. Moreover, the “radioactive label remaining in the sebocytes, % of Control” value (10 μM) is recorded as 34.6* % of Control. For the same molecule, the “radioactive label remaining in the sebocytes, % of Control” value (100 μM) was 11.9* % of Control. Under “comparison of Table 2 data”, the “effectiveness in inhibition of lipogenesis relative to TDCM” value is on record as “almost twice as effective as TDCM”. In addition, for the setting “from IC50 of Table 3”, the “activity as sebum suppressant relative to the branched alcohol from which it is derived” value is “about 20 times”.
For the molecule tridecylcarboxymethylate [TDCM], the “inhibition of lipogenesis, in words” value is given as “enhanced inhibition of lipogenesis at all tested concentrations”. The “radioactive label remaining in the sebocytes, % of Control” value (1 μM) was 84.8* % of Control. Further, the “radioactive label remaining in the sebocytes, % of Control” value (10 μM) is on record as 43.4* % of Control. The “radioactive label remaining in the sebocytes, % of Control” value (100 μM) is given as 22.8* % of Control.

Values taken from patent US6916851B2, “Skin care cosmetic methods of sebum control using carboxyalkylates of branched alcohols and/or alkoxylates thereof” (Unilever Home & Personal Care USA, a division of Conopco, …, priority 2002, dated 2005).
